Experimental data taken from the supplement of paper PMC10307832.

Key:
Test in all cases: relative viability (nuclei count vs DMSO), 5 days (fraction); higher = more cells survive
[1] = compound: C[C@]1(c2nc3c(C(N)=O)cccc3[nH]2)CCCN1 [Veliparib] + O=C(c1cc(Cc2n[nH]c(=O)c3ccccc23)ccc1F)N1CCN(C(=O)C2CC2)CC1 [Olaparib] (partner 8 µM)
Summary of the method: (§1)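 Relative viability is defined as nuclei in treated wells over nuclei in vehicle wells. Duplicate plates were run and medians reported. Lung cancer cell lines in 1536-well plates were dosed by pin tool one day after seeding, with one drug or with a fixed anchor-drug dose plus five library-drug doses (not always all listed) in √10 steps, and nuclei were counted after 5 days.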

[2] = compound: COC1=CC=C(C=C1)CN2C=CC3=C2C=C(C=C3)C(=O)NO + Cc1nc(Nc2ncc(C(=O)Nc3c(C)cccc3Cl)s2)cc(N2CCN(CCO)CC2)n1 [Dasatinib] (partner 0.075 µM)
Summary of the method: as §1

[3] = compound: COC1=CC=C(C=C1)CN2C=CC3=C2C=C(C=C3)C(=O)NO + CS(=O)(=O)CCNCc1ccc(-c2ccc3ncnc(Nc4ccc(OCc5cccc(F)c5)c(Cl)c4)c3c2)o1 [Lapatinib] (partner 2 µM)
Summary of the method: as §1

[4] = compound: C[C@]1(c2nc3c(C(N)=O)cccc3[nH]2)CCCN1 [Veliparib] + C[C@@H](Oc1cc(-c2cnn(C3CCNCC3)c2)cnc1N)c1c(Cl)ccc(F)c1Cl [Crizotinib] (partner 1 µM)
Summary of the method: as §1

Row | Cell Line | relative viability ([1]; first compound 0.02 µM) | relative viability ([1]; first compound 0.06325 µM) | relative viability ([1]; first compound 0.2 µM) | relative viability ([1]; first compound 0.6325 µM) | relative viability ([1]; first compound 2 µM) | relative viability ([2]; first compound 0.08 µM) | relative viability ([2]; first compound 0.253 µM) | relative viability ([2]; first compound 0.8 µM) | relative viability ([2]; first compound 2.53 µM) | relative viability ([2]; first compound 8 µM) | relative viability ([3]; first compound 0.08 µM) | relative viability ([3]; first compound 0.253 µM) | relative viability ([3]; first compound 0.8 µM) | relative viability ([3]; first compound 2.53 µM) | relative viability ([3]; first compound 8 µM) | relative viability ([4]; first compound 0.02 µM) | relative viability ([4]; first compound 0.06325 µM) | relative viability ([4]; first compound 0.2 µM) | relative viability ([4]; first compound 0.6325 µM) | relative viability ([4]; first compound 2 µM)
1 | 201T | 0.809 | 0.906 | 0.852 | 0.824 | 0.83 | 0.625 | 0.662 | 0.607 | 0.573 | 0.545 | 1 | 1.03 | 1.06 | 1.05 | 0.969 | 1.03 | 0.978 | 0.964 | 0.992 | 0.997
2 | A549 | 0.308 | 0.375 | 0.223 | 0.314 | 0.407 | – | – | – | – | – | – | 0.931 | 1.09 | 0.953 | 0.915 | 0.768 | 0.699 | 0.792 | 0.61 | 0.891
3 | A-427 | 0.575 | 0.697 | 0.78 | 0.656 | 0.737 | – | 0.75 | 0.769 | 0.669 | 0.503 | – | 1.07 | 1.1 | 0.995 | 0.909 | 0.884 | 0.837 | 0.864 | 0.83 | 0.836
4 | ABC-1 | – | – | 0.8 | 0.874 | 0.586 | – | 0.566 | 0.589 | 0.676 | 0.488 | 0.618 | 1.13 | 1.21 | 1.3 | 1.13 | – | 0.987 | 0.846 | 0.953 | 0.962
5 | BEN | 0.799 | 1.15 | 1.12 | 0.92 | 1 | 0.305 | 0.264 | 0.297 | 0.347 | 0.317 | 0.552 | 0.552 | 0.637 | 0.78 | 0.621 | 0.735 | 0.97 | 1.01 | 0.783 | 0.884
6 | CAL-12T | 0.723 | 0.727 | 0.696 | 0.649 | 0.712 | 0.426 | 0.613 | 0.478 | 0.414 | 0.408 | 0.215 | – | 0.715 | 0.755 | 0.605 | 0.702 | 0.542 | 0.589 | 0.616 | 0.645
7 | COR-L23 | 0.376 | 0.247 | 0.329 | 0.295 | 0.355 | 0.388 | 0.463 | 0.556 | 0.524 | 0.427 | 0.736 | 1.07 | 0.937 | 1.02 | 0.84 | 0.637 | 0.605 | 0.718 | 0.584 | 0.651
8 | COR-L 105 | 0.689 | 0.519 | 0.732 | 0.608 | 0.731 | 0.287 | 0.32 | 0.35 | 0.323 | 0.237 | – | 0.367 | 0.37 | 0.341 | 0.296 | 0.881 | 0.583 | 0.921 | 0.786 | 0.696
9 | Calu-6 | 0.646 | 0.565 | 0.606 | 0.491 | 0.664 | – | – | – | – | – | 0.432 | 1.05 | 1.06 | 1.1 | 1.03 | 0.817 | 0.735 | 0.882 | 0.691 | 0.796
10 | ChaGo-K-1 | 0.362 | 0.447 | 0.429 | 0.387 | 0.443 | – | 0.589 | 0.631 | 0.584 | 0.486 | – | – | – | – | – | – | 1.05 | 1.08 | 1.06 | 1.09
11 | EBC-1 | 0.748 | 0.622 | 0.731 | 0.655 | 0.756 | – | – | – | – | – | – | 0.226 | 0.211 | 0.232 | 0.208 | 0.194 | 0.231 | 0.213 | 0.186 | 0.233
12 | EKVX | – | 0.911 | 0.889 | 0.72 | 0.867 | 0.552 | 0.576 | 0.592 | 0.709 | 0.568 | 0.166 | 0.18 | 0.185 | 0.203 | 0.225 | 0.65 | 0.744 | 1.04 | 0.977 | 0.913
13 | EMC-BAC-2 | 0.539 | 0.427 | 0.483 | 0.455 | 0.495 | 0.324 | 0.333 | 0.347 | 0.357 | 0.298 | 0.613 | 0.884 | 0.954 | 0.906 | 0.819 | 0.771 | 0.649 | 0.754 | 0.737 | 0.779
14 | EPLC-272H | – | 0.764 | 1.05 | 0.733 | 0.715 | 0.36 | – | 0.434 | 0.389 | 0.199 | 0.199 | 0.974 | 1.04 | 0.974 | 0.728 | – | 0.798 | 0.855 | 0.941 | 0.904
15 | H3255 | 0.544 | 0.61 | 0.534 | 0.567 | 0.553 | 0.41 | 0.417 | 0.348 | 0.389 | 0.276 | 0.184 | 0.247 | 0.221 | 0.238 | 0.226 | 0.898 | 0.904 | 0.814 | 0.829 | 0.969
16 | HARA | 0.931 | – | 0.857 | 0.858 | 0.722 | – | 0.284 | 0.256 | 0.177 | 0.189 | 0.424 | 0.891 | 0.815 | 0.712 | 0.679 | 1.03 | 0.996 | 0.954 | 0.848 | 1.06
17 | HCC-15 | 0.756 | 0.649 | 0.726 | 0.686 | 0.706 | 0.433 | 0.675 | 0.65 | 0.626 | 0.586 | 0.458 | 0.875 | 0.843 | 0.842 | 0.73 | 0.803 | 0.86 | 0.847 | 0.752 | 0.825
18 | HCC-44 | 1.02 | 0.924 | 0.975 | 0.932 | 1 | – | – | – | – | – | 0.777 | 0.924 | 0.944 | 0.921 | 0.963 | 0.834 | 0.708 | 0.85 | 0.74 | 0.835
